In patent US12162888B2, “Carboxamides as ubiquitin-specific protease inhibitors” (Valo Early Discovery, Inc., priority 2018, dated 2024):

Molecular target: T1, USP25 (USP25-His6, Boston Biochem E-546) (Homo sapiens, UniProt Q9UHP3)
T1 construct: His6 (C); purchased Boston Biochem E-546
T1 sequence (Q9UHP3 1-1055): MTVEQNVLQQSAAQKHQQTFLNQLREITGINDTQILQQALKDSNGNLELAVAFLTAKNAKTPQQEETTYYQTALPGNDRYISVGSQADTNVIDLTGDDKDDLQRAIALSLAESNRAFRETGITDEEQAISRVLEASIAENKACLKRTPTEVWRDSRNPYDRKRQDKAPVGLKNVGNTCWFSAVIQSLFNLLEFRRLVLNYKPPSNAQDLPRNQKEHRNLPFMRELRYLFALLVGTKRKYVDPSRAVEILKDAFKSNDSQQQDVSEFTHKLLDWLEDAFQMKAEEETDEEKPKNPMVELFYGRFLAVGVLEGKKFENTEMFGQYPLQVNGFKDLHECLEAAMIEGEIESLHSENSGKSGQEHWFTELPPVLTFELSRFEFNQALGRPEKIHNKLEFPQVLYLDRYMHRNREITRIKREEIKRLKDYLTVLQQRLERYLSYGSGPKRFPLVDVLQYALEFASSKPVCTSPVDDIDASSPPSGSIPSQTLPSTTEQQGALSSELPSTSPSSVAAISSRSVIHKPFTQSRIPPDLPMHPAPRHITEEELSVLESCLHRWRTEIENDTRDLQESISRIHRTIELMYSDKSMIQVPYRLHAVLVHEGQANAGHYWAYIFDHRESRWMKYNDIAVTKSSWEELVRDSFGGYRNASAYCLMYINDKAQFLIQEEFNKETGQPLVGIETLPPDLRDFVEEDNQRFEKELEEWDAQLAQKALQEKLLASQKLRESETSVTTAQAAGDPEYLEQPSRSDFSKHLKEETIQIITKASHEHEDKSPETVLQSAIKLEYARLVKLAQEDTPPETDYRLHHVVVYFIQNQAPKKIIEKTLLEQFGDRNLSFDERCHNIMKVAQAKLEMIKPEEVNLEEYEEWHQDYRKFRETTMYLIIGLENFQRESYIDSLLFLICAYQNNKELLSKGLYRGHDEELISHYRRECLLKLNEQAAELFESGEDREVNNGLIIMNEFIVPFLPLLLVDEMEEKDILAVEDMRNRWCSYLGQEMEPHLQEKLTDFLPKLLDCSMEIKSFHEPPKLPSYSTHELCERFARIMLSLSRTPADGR
Test: Ubiquitin-Rhodamine 110 Assay for USP25 Activity, Example A-3
Assay type: biochemical
Details: Ubiquitin-Rhodamine 110 assay, Example A-3; read-out: USP25 A-3 IC50 range
Experimental: Example A-3: Biochemical Assay: Ubiquitin-Rhodamine 110 Assay for USP25 Activity
The assay was performed in a final volume of 9 μL in assay buffer containing 20 mM Tris-HCl (pH 8.0, (1M Tris-HCl, pH 8.0 solution; Corning 46-031-CM)), 3 mM BME (2-Mercaptoethanol; Sigma 63689-25ML-F), 0.03% BGG (0.22 μM filtered, Sigma, G7516-25G), and 0.01% Triton X-100 (Sigma, T9284-10L). Nanoliter quantities of 10-point, 3-fold serial dilution in DMSO was pre-dispensed into 1536 assay plates (Corning, #3724BC) for a final test concentration of 25 μM to 1.3 nM, top to lowest dose, respectively. Enzyme USP25, construct USP25-His6, (Boston Biochem E-546). Concentration and incubation times were optimized for the maximal signal-to-background while maintaining initial velocity conditions at a fixed substrate concentration. The final concentration of the enzyme in the assay was […]. Final substrate (Ub-Rh110; Ubiquitin-Rhodamine 110, R&D Systems #U-555) concentration was 25 nM with [Ub-Rh110]<<Km. 3 μL of 2× enzyme was added to assay plates (pre-stamped with compound) preincubated with […] for 30 minutes and then 3 μL of 2× Ub-Rh110 was added to assay plates. Plates were incubated for 45 minutes at room temperature before addition of 3 μL of stop solution (final concentration of 10 mM citric acid (Sigma, 251275-500G)). Fluorescence was read on the Envision (Excitation at 485 nm and Emission at 535 nm; Perkin Elmer) or on the PheraSTAR (Excitation at 485 nm and Emission at 535 nm; BMG Labtech).
For assay formats Example A-1(a), A-1(b), and A-2, data were reported as percent inhibition compared with control wells based on the following equation: % inh=1−((FLU−AveLow)/(AveHigh−AveLow)) where FLU=measured Fluorescence, AveLow=average Fluorescence of no enzyme control (n=16), and AveHighh=average Fluorescence of DMSO control (n=16). IC50 values were determined by curve fitting of the standard 4 parameter logistic fitting algorithm included in the Activity Base software package: IDBS XE Designer Model 205. Data is fitted using the Levenburg Marquardt algorithm.

Compound | IC50
Cc1ccc2c(N)c(C(=O)N[C@H]3CCc4nc(N5C[C@@H](N)[C@H](C(F)F)C5)ncc4C3)sc2n1 [Example 381, 3-amino-N-[(6S)-2-[(3S,4R)-3-amino-4-(difluoromethyl)pyrrolidin-1-yl]-5,6,7,8-tetrahydroquinazolin-6-yl]-6-methylthieno[2,3-b]pyridine-2-carboxamide] | > 2000 nM
Cc1ccc2c(N)c(C(=O)N[C@@H]3CCc4nc(N5C[C@@H](N)[C@H](C(F)F)C5)ncc4C3)sc2n1 [Example 382, 3-amino-N-[(6R)-2-[(3S,4R)-3-amino-4-(difluoromethyl)pyrrolidin-1-yl]-5,6,7,8-tetrahydroquinazolin-6-yl]-6-methylthieno[2,3-b]pyridine-2-carboxamide] | > 2000 nM
Cc1ccc2c(N)c(C(=O)N[C@@H]3CCc4nc(N5C[C@H](C(F)F)[C@@H](N)C5)ncc4C3)sc2n1 [Example 383, 3-amino-N-[(6R)-2-[(3R,4S)-3-amino-4-(difluoromethyl)pyrrolidin-1-yl]-5,6,7,8-tetrahydroquinazolin-6-yl]-6-methylthieno[2,3-b]pyridine-2-carboxamide] | > 2000 nM
Cc1ccc2c(N)c(C(=O)N[C@H]3CCc4nc(N5C[C@H](CF)[C@@H](N)C5)ccc4C3)sc2n1 [Example 384, 3-amino-N-[(6S)-2-[(3R,4S)-3-amino-4-(fluoromethyl)pyrrolidin-1-yl]-5,6,7,8-tetrahydroquinolin-6-yl]-6-methylthieno[2,3-b]pyridine-2-carboxamide] | 200 to 2000 nM
Cc1ccc2c(N)c(C(=O)N[C@H]3CCc4nc(N5C[C@@H](CF)[C@H](N)C5)ccc4C3)sc2n1 [Example 385, 3-amino-N-[(6S)-2-[(3S,4R)-3-amino-4-(fluoromethyl)pyrrolidin-1-yl]-5,6,7,8-tetrahydroquinolin-6-yl]-6-methylthieno[2,3-b]pyridine-2-carboxamide] | > 2000 nM
Cc1ccc2c(N)c(C(=O)N[C@H]3CCc4nc(N5CC[C@](N)(CO)C5)ccc4C3)sc2n1 [Example 386, 3-amino-N-[(6S)-2-[(3R)-3-amino-3-(hydroxymethyl)pyrrolidin-1-yl]-5,6,7,8-tetrahydroquinolin-6-yl]-6-methylthieno[2,3-b]pyridine-2-carboxamide] | 200 to 2000 nM
Cc1ccc2c(N)c(C(=O)N[C@H]3CCc4nc(N5CC[C@@](N)(CO)C5)ccc4C3)sc2n1 [Example 387, 3-amino-N-[(6S)-2-[(3S)-3-amino-3-(hydroxymethyl)pyrrolidin-1-yl]-5,6,7,8-tetrahydroquinolin-6-yl]-6-methylthieno[2,3-b]pyridine-2-carboxamide] | > 2000 nM
COC[C@@]1(N)CCN(c2ccc3c(n2)CC[C@H](NC(=O)c2sc4nc(C)ccc4c2N)C3)C1 [Example 388, 3-amino-N-[(6S)-2-[(3R)-3-amino-3-(methoxymethyl)pyrrolidin-1-yl]-5,6,7,8-tetrahydroquinolin-6-yl]-6-methylthieno[2,3-b]pyridine-2-carboxamide] | 200 to 2000 nM
COC[C@]1(N)CCN(c2ccc3c(n2)CC[C@H](NC(=O)c2sc4nc(C)ccc4c2N)C3)C1 [Example 389, 3-amino-N-[(6S)-2-[(3S)-3-amino-3-(methoxymethyl)pyrrolidin-1-yl]-5,6,7,8-tetrahydroquinolin-6-yl]-6-methylthieno[2,3-b]pyridine-2-carboxamide] | 200 to 2000 nM
Cc1ccc2c(N)c(C(=O)N[C@H]3CCc4nc(N5C[C@@H]6COC[C@]6(N)C5)ccc4C3)sc2n1 [Example 394, N-[(6S)-2-[(3aR,6aS)-3a-amino-hexahydro-1H-furo[3,4-c]pyrrol-5-yl]-5,6,7,8-tetrahydroquinolin-6-yl]-3-amino-6-methylthieno[2,3-b]pyridine-2-carboxamide] | > 2000 nM
Cc1ccc2c(N)c(C(=O)N[C@H]3CCc4nc(N5C[C@H]6COC[C@@]6(N)C5)ccc4C3)sc2n1 [Example 395, N-[(6S)-2-[(3aS,6aR)-3a-amino-hexahydro-1H-furo[3,4-c]pyrrol-5-yl]-5,6,7,8-tetrahydroquinolin-6-yl]-3-amino-6-methylthieno[2,3-b]pyridine-2-carboxamide] | 200 to 2000 nM
Cc1ccc2c(N)c(C(=O)N[C@H]3CCc4nc(N5C[C@H]6COC[C@@H](C5)[C@H]6N)ccc4C3)sc2n1 [Example 396] | 200 to 2000 nM
Cc1ccc2c(N)c(C(=O)N[C@H]3CCc4nc(N5C[C@H]6COC[C@@H](C5)[C@@H]6N)ccc4C3)sc2n1 [Example 397] | 200 to 2000 nM
Cc1ccc2c(N)c(C(=O)N[C@H]3CCc4nc(N5CC6(C[C@@H](N)CO6)C5)ccc4C3)sc2n1 [Example 398, 3-amino-N-[(6S)-2-[(7R)-7-amino-5-oxa-2-azaspiro[3.4]octan-2-yl]-5,6,7,8-tetrahydroquinolin-6-yl]-6-methylthieno[2,3-b]pyridine-2-carboxamide] | 200 to 2000 nM
Cc1ccc2c(N)c(C(=O)N[C@H]3CCc4nc(N5CC6(C[C@H](N)CO6)C5)ccc4C3)sc2n1 [Example 399, 3-amino-N-[(6S)-2-[(7S)-7-amino-5-oxa-2-azaspiro[3.4]octan-2-yl]-5,6,7,8-tetrahydroquinolin-6-yl]-6-methylthieno[2,3-b]pyridine-2-carboxamide] | 200 to 2000 nM
CCn1ccc2cc(C(=O)N[C@H]3CCc4nc(N5C[C@H](NC)[C@@H](OC)C5)ccc4C3)cnc21 [Example 402, 1-ethyl-N-[(6S)-2-[(3S,4S)-3-methoxy-4-(methylamino)pyrrolidin-1-yl]-5,6,7,8-tetrahydroquinolin-6-yl]-1H-pyrrolo[2,3-b]pyridine-5-carboxamide] | > 2000 nM
CCn1ccc2cc(C(=O)N[C@H]3CCc4nc(N5C[C@@H](N)C6(COC6)C5)ccc4C3)cnc21 [Example 404, N-[(6S)-2-[(8S)-8-amino-2-oxa-6-azaspiro[3.4]octan-6-yl]-5,6,7,8-tetrahydroquinolin-6-yl]-1-ethyl-1H-pyrrolo[2,3-b]pyridine-5-carboxamide] | > 2000 nM
Cc1ccc2c(N)c(C(=O)N[C@H]3CCc4nc(N5CC[C@@]6(C5)OCC[C@H]6N)ccc4C3)sc2n1 [Example 405, 3-amino-N-[(6S)-2-[(4R,5S)-4-amino-1-oxa-7-azaspiro[4.4]nonan-7-yl]-5,6,7,8-tetrahydroquinolin-6-yl]-6-methylthieno[2,3-b]pyridine-2-carboxamide] | 200 to 2000 nM
Cc1ccc2c(N)c(C(=O)N[C@H]3CCc4nc(N5CC[C@]6(C5)OCC[C@@H]6N)ccc4C3)sc2n1 [Example 406, 3-amino-N-[(6S)-2-[(4S,5R)-4-amino-1-oxa-7-azaspiro[4.4]nonan-7-yl]-5,6,7,8-tetrahydroquinolin-6-yl]-6-methylthieno[2,3-b]pyridine-2-carboxamide] | > 2000 nM
Cc1ccc2c(N)c(C(=O)N[C@H]3CCc4nc(N5CC[C@@]6(C5)OCC[C@@H]6N)ccc4C3)sc2n1 [Example 407, 3-amino-N-[(6S)-2-[(4S,5S)-4-amino-1-oxa-7-azaspiro[4.4]nonan-7-yl]-5,6,7,8-tetrahydroquinolin-6-yl]-6-methylthieno[2,3-b]pyridine-2-carboxamide] | > 2000 nM
